Earlier results, collected in patent publication US20230270707A1, “ORAL LIQUID PHARMACEUTICAL COMPOSITIONS OF ISOTRETINOIN” (IDRS Labs Private Limited, priority 2020, published 2023).
Read-outs that look alike come from different tables or passages of the source.

Key:
[1] = target plasma level of isotretinoin ≥2 μM

patients who achieved the target Cmax ([1]; drug extracted from capsules and mixed with food or given via nasogastric tube): 55% | patients who achieved the target Cmax ([1]; patients able to swallow the capsules): 92.5% | solubility in water: practically insoluble in water
Structure (SMILES): CC1=C(/C=C/C(C)=C/C=C/C(C)=C\C(=O)O)C(C)(C)CCC1 [isotretinoin, 13-cis retinoic acid]
